Values joined by “and” are separate entries in the source; they are usually repeats but may differ in a detail not shown here. Equal values may be shown once.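 Cells were grown in 96-well plates and exposed to each compound for 48 hours at five concentrations; endpoints were interpolated linearly between bracketing concentrations, or set to the highest concentration if not reached. GI50: concentration for 50% inhibition of growth. The concentration for full growth arrest is given as TGI.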
Legend:
Test in all cases: inhibition of tumour cell growth, NCI panel, 48 h
[1] = tested on: COLO 205 colon
[2] = tested on: HCT-15 colon
[3] = tested on: HOP-62 NSCLC
[4] = tested on: HT29 colon
[5] = tested on: NCI-H23 lung
[6] = tested on: SF-539 CNS
[7] = tested on: SNB-19 CNS
[8] = tested on: HOP-92 NSCLC
[9] = tested on: MOLT-4 leukemia
[10] = tested on: MDA-MB-231 breast

In the case of `Cn1c(=O)nc2n(-c3ccc(F)c(F)c3)c3ccccc3nc-2c1=O`, the TGI [1] is reported as 15.7 µM, the TGI [2] is reported as 20.4 µM and the TGI [3] is reported as over 100 µM. The TGI [4] was 16 µM, the TGI [5] was 29.9 µM and the TGI [6] was over 100 µM. The TGI [7] was 44.9 µM.

`CC1=NC(C)=C(/C(C)=N/NC(=O)c2ccccc2O)C(C)/C1=C(/C)NNC(=O)c1ccccc1O` (configuration not stated) gave a TGI [2] of 99 µM, a TGI [3] of over 100 µM and a TGI [8] of 85.9 µM. It also gave a TGI [4] of over 100 µM, a TGI [9] of 23.8 µM and a TGI [5] of 26.9 µM. The TGI [6] was 76.2 µM and the TGI [7] was over 100 µM.

`CCCCCCCCCCNC(=S)OC` gave a TGI [2] of 86.7 µM, a TGI [3] of over 100 µM and a TGI [8] of 65.9 µM. It also gave a TGI [4] of over 100 µM, a TGI [9] of 30.8 µM and a TGI [5] of over 100 µM. It also gave a TGI [6] of over 100 µM and a TGI [7] of over 100 µM.

`CSc1nc2c(nc(N)n2C2OC(CO)C(O)C(O)C2O)c(=O)[nH]1` (configuration not stated) gave a TGI [1] of over 100 µM, a TGI [3] of over 100 µM and a TGI [8] of over 100 µM. For the same compound, the TGI [4] was over 100 µM, the TGI [9] was over 100 µM and the TGI [5] was over 100 µM. For the same compound, the TGI [6] was over 100 µM and the TGI [7] was over 100 µM.

Work on `CN1C(c2ccccc2)CC(=NO)CC1c1ccccc1` (configuration not stated) yielded a GI50 [1] of 33.6 µM, a TGI [1] of 48 µM and a GI50 [2] of 41.1 µM. It also gave a TGI [2] of over 100 µM, a TGI [3] of over 100 µM and a TGI [8] of over 100 µM. The GI50 [4] was 34.8 µM, the TGI [4] was over 100 µM and the GI50 [9] was 23 µM. The TGI [9] was 62.2 µM and 69.3 µM, the TGI [5] was over 100 µM and the TGI [6] was over 100 µM. It also gave a TGI [7] of over 100 µM.

`Clc1ccc(-c2nnc(-c3nn(-c4ccccc4)c4nc5ccccc5nc34)o2)cc1` showed a TGI [1] of over 100 µM, a TGI [2] of over 100 µM and a TGI [3] of over 100 µM. The TGI [4] was over 100 µM, the TGI [9] was 81.6 µM and the TGI [5] was over 100 µM. It also gave a TGI [6] of over 100 µM and a TGI [7] of over 100 µM.

In the case of `Cn1nc(-c2ccccc2)c2c(/C=C/c3ccc(F)cc3)onc2c1=O`, the TGI [1] is reported as over 100 µM, the TGI [2] is reported as over 100 µM and the TGI [3] is reported as over 100 µM. It also gave a TGI [8] of over 100 µM, a TGI [4] of over 100 µM and a TGI [9] of over 100 µM. For the same compound, the TGI [5] was over 100 µM and the TGI [6] was over 100 µM.

Compound `CC(=O)N(N=O)c1ccc(N(N=O)C(C)=O)cc1` has a TGI [1] of over 100 µM, a TGI [2] of over 100 µM and a TGI [3] of over 100 µM. For the same compound, the TGI [8] was over 100 µM, the TGI [4] was over 100 µM and the TGI [9] was over 100 µM. For the same compound, the TGI [5] was over 100 µM, the TGI [6] was over 100 µM and the TGI [7] was over 100 µM.

Work on `NCCCNCc1c2ccccc2c(CNCCCN)c2ccccc12` yielded a TGI [1] of 22.8 µM, a TGI [2] of 54.1 µM and a TGI [3] of 62.6 µM. For the same compound, the TGI [8] was 49.1 µM, the TGI [4] was 94.3 µM and the TGI [9] was 43.9 µM. The TGI [5] was 49.7 µM, the TGI [6] was 28.9 µM and the TGI [7] was over 100 µM.

For `C/C(=N\NC(=O)c1ccccc1O)c1c(O)cc(C)oc1=O`, the TGI [1] was over 100 µM, the TGI [2] was over 100 µM and the TGI [3] was over 100 µM. For the same compound, the TGI [8] was 68.3 µM, the TGI [4] was over 100 µM and the TGI [9] was over 100 µM. For the same compound, the TGI [5] was over 100 µM, the TGI [6] was over 100 µM and the TGI [7] was over 100 µM.

With `COc1nc(NC2OC(COC(C)=O)C(OC(C)=O)C(OC(C)=O)C2OC(C)=O)c(N=C(C)C(C)=O)c(=O)n1C` (configuration not stated) the TGI [1] was over 100 µM, the TGI [2] was over 100 µM and the TGI [3] was over 100 µM. The TGI [8] was over 100 µM, the TGI [4] was over 100 µM and the TGI [9] was over 100 µM. It also gave a TGI [5] of over 100 µM, a TGI [6] of over 100 µM and a TGI [7] of over 100 µM.

`O=c1cc(-c2ccccc2)oc2c(O)c(O)ccc12` was tested, and the GI50 [1] was 18.3 µM, the TGI [1] was 53.9 µM and the GI50 [2] was 5.45 µM. The TGI [2] was over 100 µM, the GI50 [3] was 7.08 µM and the TGI [3] was over 100 µM. The GI50 [4] was 35.4 µM, the TGI [4] was over 100 µM and the GI50 [10] was 23.2 µM. It also gave a TGI [10] of over 100 µM, a GI50 [9] of 5.09 µM and a TGI [9] of over 100 µM. For the same compound, the GI50 [5] was 6.27 µM, the TGI [5] was over 100 µM and the GI50 [6] was 14.6 µM. For the same compound, the TGI [6] was over 100 µM, the GI50 [7] was 16.8 µM and the TGI [7] was over 100 µM.

Work on `O=C(N/C(=C\c1cccc([N+](=O)[O-])c1)c1nc2c3c(ccc2[nH]1)C(=O)c1ccccc1C3=O)c1ccccc1` yielded a TGI [2] of over 100 µM, a TGI [3] of over 100 µM and a TGI [8] of over 100 µM. For the same compound, the TGI [4] was over 100 µM, the TGI [5] was over 100 µM and the TGI [6] was over 100 µM. For the same compound, the TGI [7] was over 100 µM.

For `COC(=O)[C@@H](C)C[C@H](Cc1ccccc1)NC(=O)c1csc([C@@H](C[C@H](C(C)C)N(C)C(=O)[C@@H](NC(=O)[C@H]2CCCCN2C)c2ccc(F)cc2)OC(C)=O)n1`, the GI50 [1] was 0.0113 µM and 0.0379 µM, the TGI [1] was 0.127 µM and 0.526 µM and the TGI [2] was 25 µM and > 100 µM. The TGI [3] was 25 µM and 40.4 µM, the TGI [9] was 8.45 µM and 54.4 µM and the TGI [5] was 25 µM and > 100 µM. For the same compound, the GI50 [6] was 0.0215 µM and 0.0604 µM, the TGI [6] was 0.0662 µM and 0.615 µM and the GI50 [7] was 0.0163 µM and 0.0441 µM. For the same compound, the TGI [7] was over 100 µM.

`C=CCN=C1NC(=O)C(CC(=O)Nc2cccc(Cl)c2)S1` (configuration not stated) was tested, and the TGI [1] was over 100 µM, the TGI [2] was over 100 µM and the TGI [3] was over 100 µM. It also gave a TGI [4] of over 100 µM, a TGI [9] of over 100 µM and a TGI [5] of over 100 µM. The TGI [6] was over 100 µM and the TGI [7] was over 100 µM.

For `Cc1ccc(NC(=O)C(=O)C2C(=O)NC(=O)NC2=O)c(C)c1`, the TGI [1] was 26.8 µM, the TGI [2] was over 100 µM and the TGI [3] was over 100 µM. For the same compound, the TGI [8] was over 100 µM, the TGI [4] was over 100 µM and the TGI [9] was over 100 µM. The TGI [5] was over 100 µM, the TGI [6] was over 100 µM and the TGI [7] was over 100 µM.

With `CCCCSC1CCSc2c1ccc1ccccc21` (configuration not stated) the TGI [1] was over 100 µM, the TGI [2] was over 100 µM and the TGI [3] was over 100 µM. The TGI [8] was over 100 µM, the TGI [4] was over 100 µM and the TGI [9] was over 100 µM. For the same compound, the TGI [5] was over 100 µM, the TGI [6] was over 100 µM and the TGI [7] was over 100 µM.

`Oc1c(CN2CCCCC2)ccc2cccnc12` was tested, and the GI50 [1] was 3.64 µM, the TGI [1] was 15 µM and the GI50 [2] was 0.728 µM. It also gave a TGI [2] of 82.9 µM, a GI50 [3] of 3.75 µM and a TGI [3] of 54.3 µM. For the same compound, the GI50 [4] was 4.88 µM, the TGI [4] was 19.6 µM and the GI50 [10] was 4.79 µM. The TGI [10] was over 100 µM, the GI50 [9] was 3.97 µM and the TGI [9] was over 100 µM. The GI50 [5] was 6.84 µM, the TGI [5] was 36.1 µM and the GI50 [6] was 4.89 µM. The TGI [6] was 39.5 µM, the GI50 [7] was 8.86 µM and the TGI [7] was over 100 µM.

For `CSc1ccc(Cc2cc(C(C)(C)C)cc(C(C)(C)C)c2O)cc1`, the TGI [2] was 27.6 µM, the TGI [3] was 35 µM and the TGI [4] was 27.5 µM. The TGI [9] was 23.8 µM, the TGI [5] was 28.7 µM and the TGI [6] was 31.8 µM. The TGI [7] was 29.9 µM.

With `CCCC(=O)Oc1ccc(/C=N/NC(N)=S)nc1` the TGI [1] was over 100 µM, the TGI [2] was over 100 µM and the TGI [3] was over 100 µM. For the same compound, the TGI [8] was over 100 µM, the TGI [4] was over 100 µM and the TGI [9] was over 100 µM. It also gave a TGI [5] of over 100 µM, a TGI [6] of over 100 µM and a TGI [7] of over 100 µM.

`OCC1CC2C=CCC(C2)C1` (configuration not stated) gave a TGI [1] of over 100 µM, a TGI [3] of over 100 µM and a TGI [8] of over 100 µM. It also gave a TGI [4] of over 100 µM, a TGI [9] of over 100 µM and a TGI [5] of over 100 µM. For the same compound, the TGI [6] was over 100 µM and the TGI [7] was over 100 µM.

`C=C1C2CC(OC(C)=O)C3(C)C(c4ccoc4)OC(=O)[C@@H](O)[C@]13OC1C[C@H](OC(C)=O)C(C)(C)[C@H](C(O)C(=O)OC)[C@]12C` (some centres not stated) showed a TGI [1] of over 100 µM, a TGI [2] of over 100 µM and a TGI [8] of 57.6 µM. For the same compound, the TGI [4] was over 100 µM, the TGI [9] was over 100 µM and the TGI [5] was over 100 µM. It also gave a TGI [6] of over 100 µM and a TGI [7] of over 100 µM.
